Test results as given in PubChem BioAssay (NCI).
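Cultured in 96-well plates, cells were exposed to test compound for 48 hours across five concentrations. TGI denotes the concentration required for complete inhibition of growth.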

Tests used:
Experiment in all cases: inhibition of tumour cell growth, NCI panel, 48 h
[1] = tested on: ACHN renal
[2] = tested on: EKVX NSCLC
[3] = tested on: HCC-2998 colon
[4] = tested on: K-562 leukemia
[5] = tested on: LOX IMVI melanoma
[6] = tested on: NCI-H226 lung
[7] = tested on: NCI-H460 lung
[8] = tested on: OVCAR-4 ovarian
[9] = tested on: OVCAR-5 ovarian
[10] = tested on: RXF 393 renal
[11] = tested on: SK-MEL-28 melanoma
[12] = tested on: SR leukemia
[13] = tested on: U251 CNS
[14] = tested on: UACC-257 melanoma
[15] = tested on: BT-549 breast

For CC12CCC([C@H](N3CCOCC3)/C1=N\OCCN1CCCC1)C2(C)C (stereo partly drawn), the TGI [1] was over 100 µM, the TGI [2] was over 100 µM and the TGI [3] was over 100 µM. It also gave a TGI [4] of over 100 µM, a TGI [5] of over 100 µM and a TGI [6] of over 100 µM. For the same molecule, the TGI [7] was over 100 µM, the TGI [8] was over 100 µM and the TGI [9] was over 100 µM. The TGI [10] was over 100 µM, the TGI [11] was over 100 µM and the TGI [12] was over 100 µM. For the same molecule, the TGI [13] was over 100 µM and the TGI [14] was over 100 µM.

O=c1cc(CO)n(CCc2c[nH]c3ccccc23)cc1O gave a TGI [1] of over 100 µM, a TGI [15] of over 100 µM and a TGI [2] of over 100 µM. The TGI [5] was over 100 µM, the TGI [7] was over 100 µM and the TGI [9] was over 100 µM. The TGI [13] was over 100 µM and the TGI [14] was over 100 µM.

Molecule Cc1cccc2[nH]c3cc(O)cc(O)c3c(=O)c12 has a TGI [1] of over 10 µM, a TGI [15] of over 10 µM and a TGI [4] of over 10 µM. It also gave a TGI [5] of over 10 µM, a TGI [6] of over 10 µM and a TGI [7] of over 10 µM. For the same molecule, the TGI [8] was over 10 µM, the TGI [9] was over 10 µM and the TGI [10] was over 10 µM. For the same molecule, the TGI [11] was over 10 µM, the TGI [13] was over 10 µM and the TGI [14] was over 10 µM.

C=C(C)C#CC(O)(C(=O)OC1CCN(C)CC1)C(C)C (stereo not drawn) showed a TGI [1] of over 100 µM, a TGI [2] of over 100 µM and a TGI [3] of over 100 µM. It also gave a TGI [4] of over 100 µM, a TGI [5] of over 100 µM and a TGI [6] of over 100 µM. It also gave a TGI [9] of over 100 µM, a TGI [10] of over 100 µM and a TGI [11] of over 100 µM. The TGI [12] was over 100 µM, the TGI [13] was over 100 µM and the TGI [14] was over 100 µM.

Work on COc1ccc(-c2cnoc2-c2ccc(OC)c(OC)c2)cc1OC yielded a TGI [1] of over 74.2 µM, a TGI [2] of 20.7 µM and a TGI [4] of over 100 µM. The TGI [5] was 5.22 µM, the TGI [6] was over 24 µM and the TGI [7] was 19.8 µM. For the same molecule, the TGI [8] was over 100 µM, the TGI [9] was 36 µM and the TGI [11] was over 21.9 µM. It also gave a TGI [13] of 11.4 µM and a TGI [14] of over 100 µM.

[N-]=[N+]=Nc1ccc(NCCCCCC(=O)ON2C(=O)CCC2=O)c([N+](=O)[O-])c1 gave a TGI [1] of over 100 µM, a TGI [15] of over 100 µM and a TGI [2] of over 100 µM. The TGI [4] was over 100 µM, the TGI [5] was over 100 µM and the TGI [6] was over 100 µM. It also gave a TGI [7] of over 100 µM, a TGI [8] of over 100 µM and a TGI [9] of over 100 µM. The TGI [10] was over 100 µM, the TGI [11] was over 100 µM and the TGI [13] was over 100 µM. It also gave a TGI [14] of over 100 µM.

With O=c1[nH][nH]c(=O)[nH]1 the TGI [2] was over 100 µM, the TGI [3] was over 100 µM and the TGI [4] was over 100 µM. For the same molecule, the TGI [5] was over 100 µM, the TGI [6] was over 100 µM and the TGI [7] was over 100 µM. The TGI [8] was over 100 µM, the TGI [9] was over 100 µM and the TGI [10] was over 100 µM. For the same molecule, the TGI [11] was over 100 µM, the TGI [12] was over 100 µM and the TGI [13] was over 100 µM. For the same molecule, the TGI [14] was over 100 µM.

CNC(=O)CCNC(=O)CCC(=O)N(C)C gave a TGI [1] of over 100 µM, a TGI [3] of over 100 µM and a TGI [4] of over 100 µM. For the same molecule, the TGI [7] was over 100 µM, the TGI [8] was over 100 µM and the TGI [9] was over 100 µM. It also gave a TGI [10] of over 100 µM, a TGI [11] of over 100 µM and a TGI [12] of over 100 µM. For the same molecule, the TGI [13] was over 100 µM.

COc1cccc(/C(CC(O)(C(F)(F)F)C(F)(F)F)=N\N(C)C)c1 was tested, and the TGI [1] was over 100 µM, the TGI [2] was over 100 µM and the TGI [3] was over 100 µM. For the same molecule, the TGI [4] was over 100 µM, the TGI [5] was over 100 µM and the TGI [6] was over 100 µM. It also gave a TGI [7] of over 100 µM, a TGI [8] of over 100 µM and a TGI [9] of over 100 µM. It also gave a TGI [10] of over 100 µM, a TGI [11] of over 100 µM and a TGI [12] of over 100 µM. The TGI [13] was over 100 µM.

C=CCC1C(=O)C(C(=O)OC)N2CCc3c([nH]c4ccccc34)C12 (stereo not drawn) was tested, and the TGI [2] was over 100 µM, the TGI [3] was over 100 µM and the TGI [4] was over 100 µM. For the same molecule, the TGI [8] was over 100 µM, the TGI [9] was over 100 µM and the TGI [10] was over 100 µM. It also gave a TGI [11] of over 100 µM, a TGI [12] of over 100 µM and a TGI [13] of over 100 µM.

Molecule COC1(C(C)(C)C)C=C(C(C)(C)C)P(=O)(O)O1 (stereo not drawn) has a TGI [1] of over 100 µM, a TGI [2] of over 100 µM and a TGI [3] of over 100 µM. For the same molecule, the TGI [4] was over 100 µM, the TGI [5] was over 100 µM and the TGI [7] was over 100 µM. It also gave a TGI [8] of over 100 µM, a TGI [9] of over 100 µM and a TGI [11] of over 100 µM. For the same molecule, the TGI [12] was over 100 µM, the TGI [13] was over 100 µM and the TGI [14] was over 100 µM.

CCCCC1Cc2ccccc2-c2n1c1ccccc1[n+]2C (stereo not drawn) gave a TGI [1] of over 100 µM, a TGI [2] of over 100 µM and a TGI [3] of 48.3 µM. For the same molecule, the TGI [4] was over 100 µM, the TGI [5] was 62.3 µM and the TGI [6] was over 100 µM. The TGI [7] was over 100 µM, the TGI [8] was over 100 µM and the TGI [9] was over 100 µM. The TGI [10] was over 100 µM, the TGI [11] was 91 µM and the TGI [12] was 58.5 µM. For the same molecule, the TGI [13] was over 100 µM and the TGI [14] was 25.2 µM.

NCCC(=O)N[C@H](Cc1cc(O)c(O)c(SCC(NC(=O)CC[C@H](N)C(=O)O)C(=O)NCC(=O)O)c1)C(=O)O (stereo partly drawn) was tested, and the TGI [1] was over 50 µM, the TGI [15] was over 50 µM and the TGI [2] was over 50 µM. It also gave a TGI [3] of over 50 µM, a TGI [4] of over 50 µM and a TGI [6] of over 50 µM. The TGI [7] was over 50 µM, the TGI [8] was over 50 µM and the TGI [9] was over 50 µM. The TGI [10] was over 50 µM, the TGI [11] was over 50 µM and the TGI [13] was over 50 µM. For the same molecule, the TGI [14] was over 50 µM.

In the case of COc1ccc(N(C)CN(C)c2nc(N(C)C)nc(N(C)C)n2)cc1, the TGI [1] is reported as over 100 µM, the TGI [2] is reported as over 100 µM and the TGI [4] is reported as over 100 µM. It also gave a TGI [5] of over 100 µM, a TGI [7] of over 100 µM and a TGI [8] of over 100 µM. It also gave a TGI [9] of over 100 µM, a TGI [11] of over 100 µM and a TGI [12] of over 100 µM. For the same molecule, the TGI [13] was over 100 µM and the TGI [14] was over 100 µM.

For CC1(c2cccc3c2C2(O)C=CC4(CCC32)OCCO4)OCCO1 (stereo not drawn), the TGI [1] was over 100 µM, the TGI [2] was over 100 µM and the TGI [3] was over 100 µM. It also gave a TGI [4] of over 100 µM, a TGI [5] of over 100 µM and a TGI [6] of over 100 µM. The TGI [7] was over 100 µM, the TGI [8] was over 100 µM and the TGI [9] was over 100 µM. For the same molecule, the TGI [10] was over 100 µM, the TGI [11] was over 100 µM and the TGI [13] was over 100 µM. For the same molecule, the TGI [14] was over 100 µM.
